pIC50: −log10 of the molar value.
How the values were obtained:
[1] = molecular target: T1, [Pyruvate dehydrogenase (acetyl-transferring)] kinase isozyme 2, mitochondrial (Homo sapiens, UniProt Q15119); assay: Inhibition of PDHK2 (unknown origin) by radiometric biochemical kinase assay
[2] = molecular target: T2, [Pyruvate dehydrogenase (acetyl-transferring)] kinase isozyme 4, mitochondrial (Homo sapiens, UniProt Q16654); assay: Inhibition of PDHK4 (unknown origin) by radiometric biochemical kinase assay
[3] = molecular target: [Pyruvate dehydrogenase (acetyl-transferring)] kinase isozyme 3, mitochondrial (Homo sapiens, UniProt Q15120); assay: Inhibition of PDHK3 (unknown origin) by radiometric biochemical kinase assay
[4] = system: DU-145; assay: Antiproliferative activity against p53 deficient human DU145 cells incubated for 72 hrs by CellTiter-Glo assay; type: functional; settings: DU-145, 72 h
[5] = molecular target: [Pyruvate dehydrogenase (acetyl-transferring)] kinase isozyme 1, mitochondrial (Homo sapiens, UniProt Q15118); assay: Inhibition of PDHK1 (unknown origin) by radiometric biochemical kinase assay
[6] = system: NCI-H1299; assay: Antiproliferative activity against p53 deficient human H1299 cells incubated for 72 hrs by CellTiter-Glo assay; type: functional; settings: NCI-H1299, 72 h
[7] = molecular target: Heat shock protein HSP90 (Homo sapiens, UniProt P07900+P08238); assay: Inhibition of HSP90 (unknown origin); type: protein assay
[8] = molecular target: Cytochrome P450 2C9 (Homo sapiens, UniProt P11712); assay: Inhibition of CYP2C9 (unknown origin); type: ADME
[9] = molecular target: T3, Cytochrome P450 1A2 (Homo sapiens, UniProt P05177); assay: Inhibition of CYP1A2 (unknown origin); type: ADME
T3 sequence (P05177 whole entry): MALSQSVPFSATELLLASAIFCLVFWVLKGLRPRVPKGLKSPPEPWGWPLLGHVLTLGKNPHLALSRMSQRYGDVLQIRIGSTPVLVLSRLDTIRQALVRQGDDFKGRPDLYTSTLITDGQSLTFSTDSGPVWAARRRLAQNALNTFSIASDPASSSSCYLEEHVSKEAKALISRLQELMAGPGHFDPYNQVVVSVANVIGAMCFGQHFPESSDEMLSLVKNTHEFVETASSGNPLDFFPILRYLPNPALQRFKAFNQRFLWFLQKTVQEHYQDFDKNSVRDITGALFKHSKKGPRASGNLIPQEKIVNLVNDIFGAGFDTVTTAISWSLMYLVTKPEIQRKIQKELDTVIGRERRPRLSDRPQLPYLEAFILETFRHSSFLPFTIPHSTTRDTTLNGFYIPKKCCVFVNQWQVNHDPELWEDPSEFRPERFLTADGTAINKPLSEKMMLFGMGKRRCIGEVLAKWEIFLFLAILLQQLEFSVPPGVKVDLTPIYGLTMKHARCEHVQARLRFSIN

[10] = molecular target: T2, [Pyruvate dehydrogenase (acetyl-transferring)] kinase isozyme 4, mitochondrial; assay: Inhibition of PDHK4 (unknown origin) assessed as reduction in NAD measured for 30 mins
[11] = molecular target: T1, [Pyruvate dehydrogenase (acetyl-transferring)] kinase isozyme 2, mitochondrial; assay: Inhibition of PDHK2 (unknown origin) assessed as reduction in NAD measured for 30 mins
[12] = molecular target: Cytochrome P450 2C19 (Homo sapiens, UniProt P33261); assay: Inhibition of CYP2C19 (unknown origin); type: ADME
[13] = molecular target: Cytochrome P450 2D6 (Homo sapiens, UniProt P10635); assay: Inhibition of CYP2D6 (unknown origin); type: ADME
[14] = molecular target: Cytochrome P450 3A4 (Homo sapiens, UniProt P08684); assay: Inhibition of CYP3A4 (unknown origin); type: ADME
[15] = system: NCI-H1299; assay: Synergistic antiproliferative activity against human H1299 cells at 20 uM incubated for 72 hrs in presence of satra-platin by CellTiter-Glo assay relative to control; type: functional; settings: NCI-H1299, 72 h
[16] = system: DU-145; assay: Induction of apoptosis in human DU145 cells assessed as increase in apoptotic cells at 30 uM incubated for 48 hrs by FITC Annexin-V and PI staining based flow cytometric analysis relative to control; type: functional
[17] = system: NCI-H1299; assay: Induction of apoptosis in human H1299 cells assessed as increase in apoptotic cells at 30 uM incubated for 48 hrs by FITC Annexin-V and PI staining based flow cytometric analysis relative to control; type: functional
[18] = system: NCI-H1299; assay: Inhibition of anchorage-independent colony formation in human H1299 cells at 20 uM incubated for 14 days by p iodonitrotetrazolium violet staining based method relative to control; type: functional; settings: NCI-H1299, 336 h
[19] = system: NCI-H1299; assay: Antiproliferative activity against p53 deficient human H1299 cells at 20 uM incubated for 72 hrs by CellTiter-Glo assay relative to control; type: functional
[20] = system: NCI-H1299; assay: Synergistic induction of apoptosis in human H1299 cells assessed as increase in apoptotic cells at 10 uM incubated for 48 hrs in presence of satra-platin by FITC Annexin-V and PI staining based flow cytometric analysis relative to control; type: functional
[21] = system: NCI-H1299; assay: Antiproliferative activity against PDHK1/2 double knockdown human H1299 cells transfected with PDHK1/2 siRNA at 10 uM incubated for 48 hrs by CellTiter-Glo assay relative to control; type: functional
[22] = system: NCI-H1299; assay: Antiproliferative activity against human H1299 cells transfected with control siRNA at 10 uM incubated for 48 hrs in by CellTiter-Glo assay relative to control; type: functional

Sequence of Cytochrome P450 2C9 (P11712 whole entry): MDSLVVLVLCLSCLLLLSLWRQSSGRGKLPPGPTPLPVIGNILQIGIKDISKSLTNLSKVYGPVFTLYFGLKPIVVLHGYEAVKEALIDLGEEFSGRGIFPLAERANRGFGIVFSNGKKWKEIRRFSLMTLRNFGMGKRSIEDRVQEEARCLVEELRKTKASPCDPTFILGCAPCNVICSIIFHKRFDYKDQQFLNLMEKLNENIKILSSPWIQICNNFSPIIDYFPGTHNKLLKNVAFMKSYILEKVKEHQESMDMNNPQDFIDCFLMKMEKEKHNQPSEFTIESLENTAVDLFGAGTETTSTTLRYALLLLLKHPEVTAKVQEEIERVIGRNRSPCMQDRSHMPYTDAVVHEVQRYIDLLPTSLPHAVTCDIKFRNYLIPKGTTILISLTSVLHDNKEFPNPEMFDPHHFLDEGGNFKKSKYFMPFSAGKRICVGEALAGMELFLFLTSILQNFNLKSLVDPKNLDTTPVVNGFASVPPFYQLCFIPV
Sequence of Cytochrome P450 2D6 (P10635 whole entry): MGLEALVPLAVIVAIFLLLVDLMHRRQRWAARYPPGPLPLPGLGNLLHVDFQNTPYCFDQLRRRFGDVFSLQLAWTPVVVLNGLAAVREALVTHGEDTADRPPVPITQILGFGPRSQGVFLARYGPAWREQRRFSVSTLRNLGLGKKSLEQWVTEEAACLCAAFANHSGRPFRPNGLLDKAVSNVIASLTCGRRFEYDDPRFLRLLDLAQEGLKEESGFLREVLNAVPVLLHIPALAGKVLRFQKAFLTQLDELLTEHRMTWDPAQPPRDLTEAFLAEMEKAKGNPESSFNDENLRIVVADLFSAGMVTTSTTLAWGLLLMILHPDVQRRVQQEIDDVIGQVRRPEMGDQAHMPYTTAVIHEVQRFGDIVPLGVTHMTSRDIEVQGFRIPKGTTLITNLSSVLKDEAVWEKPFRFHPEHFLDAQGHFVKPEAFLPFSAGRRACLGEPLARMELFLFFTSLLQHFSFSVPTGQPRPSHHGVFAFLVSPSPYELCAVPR
Sequence of [Pyruvate dehydrogenase (acetyl-transferring)] kinase isozyme 3, mitochondrial (Q15120 whole entry): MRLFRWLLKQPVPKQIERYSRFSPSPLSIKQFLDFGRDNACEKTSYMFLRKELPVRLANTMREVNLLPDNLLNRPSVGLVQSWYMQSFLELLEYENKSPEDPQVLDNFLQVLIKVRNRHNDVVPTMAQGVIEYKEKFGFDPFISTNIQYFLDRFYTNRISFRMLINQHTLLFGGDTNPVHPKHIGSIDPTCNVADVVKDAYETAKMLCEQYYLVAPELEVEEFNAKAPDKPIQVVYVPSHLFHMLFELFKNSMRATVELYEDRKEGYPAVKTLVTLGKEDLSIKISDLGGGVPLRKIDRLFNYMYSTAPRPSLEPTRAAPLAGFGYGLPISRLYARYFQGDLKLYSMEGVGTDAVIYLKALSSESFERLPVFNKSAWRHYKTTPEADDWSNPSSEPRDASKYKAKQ
Sequence of Cytochrome P450 3A4 (P08684 whole entry): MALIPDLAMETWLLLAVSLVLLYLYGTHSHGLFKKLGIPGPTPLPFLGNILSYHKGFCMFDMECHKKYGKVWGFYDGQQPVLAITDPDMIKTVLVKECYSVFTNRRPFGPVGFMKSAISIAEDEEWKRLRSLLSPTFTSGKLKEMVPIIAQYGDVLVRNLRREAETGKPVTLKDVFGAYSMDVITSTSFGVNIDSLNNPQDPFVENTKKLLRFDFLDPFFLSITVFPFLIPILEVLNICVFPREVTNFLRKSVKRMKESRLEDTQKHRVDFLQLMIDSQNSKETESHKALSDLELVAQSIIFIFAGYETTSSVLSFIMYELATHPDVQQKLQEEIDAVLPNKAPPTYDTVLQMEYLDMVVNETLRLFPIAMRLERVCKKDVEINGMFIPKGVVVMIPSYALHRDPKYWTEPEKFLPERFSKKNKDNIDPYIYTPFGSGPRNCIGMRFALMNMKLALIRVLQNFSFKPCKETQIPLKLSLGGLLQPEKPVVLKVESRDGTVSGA
T2 sequence (Q16654 whole entry): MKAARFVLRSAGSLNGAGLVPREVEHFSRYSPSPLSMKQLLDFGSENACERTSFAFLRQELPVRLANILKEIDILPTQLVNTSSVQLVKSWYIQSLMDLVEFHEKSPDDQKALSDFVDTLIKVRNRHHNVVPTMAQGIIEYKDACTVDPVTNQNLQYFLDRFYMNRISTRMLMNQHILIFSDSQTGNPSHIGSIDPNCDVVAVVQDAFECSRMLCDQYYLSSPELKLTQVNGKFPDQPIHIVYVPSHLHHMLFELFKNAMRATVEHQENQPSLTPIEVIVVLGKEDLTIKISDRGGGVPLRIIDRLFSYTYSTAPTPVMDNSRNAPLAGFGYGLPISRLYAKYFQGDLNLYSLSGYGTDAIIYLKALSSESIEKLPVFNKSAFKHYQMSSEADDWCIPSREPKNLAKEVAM
Sequence of [Pyruvate dehydrogenase (acetyl-transferring)] kinase isozyme 1, mitochondrial (Q15118 whole entry): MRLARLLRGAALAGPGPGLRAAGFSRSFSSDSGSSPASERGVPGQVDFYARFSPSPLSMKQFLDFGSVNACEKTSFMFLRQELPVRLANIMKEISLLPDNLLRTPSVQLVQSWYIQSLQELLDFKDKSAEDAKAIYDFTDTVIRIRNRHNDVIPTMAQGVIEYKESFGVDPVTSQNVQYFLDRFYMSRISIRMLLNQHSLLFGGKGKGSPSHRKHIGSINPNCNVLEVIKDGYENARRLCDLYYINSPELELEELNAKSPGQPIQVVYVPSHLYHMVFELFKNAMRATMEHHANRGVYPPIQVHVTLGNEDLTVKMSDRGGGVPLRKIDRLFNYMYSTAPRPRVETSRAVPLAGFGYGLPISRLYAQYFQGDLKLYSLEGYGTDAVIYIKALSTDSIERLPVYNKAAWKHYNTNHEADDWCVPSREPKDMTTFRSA
Sequence of Cytochrome P450 2C19 (P33261 whole entry): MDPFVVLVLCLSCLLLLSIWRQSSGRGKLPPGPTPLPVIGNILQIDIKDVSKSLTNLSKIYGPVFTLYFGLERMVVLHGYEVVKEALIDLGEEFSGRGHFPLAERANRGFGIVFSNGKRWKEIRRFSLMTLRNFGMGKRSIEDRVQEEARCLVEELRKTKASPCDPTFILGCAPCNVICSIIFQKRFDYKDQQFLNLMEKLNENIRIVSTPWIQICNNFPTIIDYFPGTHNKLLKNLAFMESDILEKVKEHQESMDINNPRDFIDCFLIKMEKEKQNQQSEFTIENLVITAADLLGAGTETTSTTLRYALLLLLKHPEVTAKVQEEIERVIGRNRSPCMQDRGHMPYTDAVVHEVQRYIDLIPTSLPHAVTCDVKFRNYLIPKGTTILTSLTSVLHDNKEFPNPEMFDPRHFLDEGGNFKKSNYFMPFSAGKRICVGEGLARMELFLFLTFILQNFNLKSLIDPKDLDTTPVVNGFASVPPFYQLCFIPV

Row | pIC50 [1] | pIC50 [2] | pIC50 [3] | GI50 [4] | pIC50 [5] | GI50 [6] | Structure (SMILES) | further results
1 | 6.88 | 7.06 | 7.05 | 18900 nM | 7.62 | 32200 nM | CN(C)C(=O)c1ccc(N(Cc2cnc(Br)s2)C(=O)c2ccc(O)cc2O)cc1 | 
2 | 7.74 | 8.10 | 7.05 | 42200 nM | 7.38 | 49800 nM | CN(C)C(=O)c1ccc(N(Cc2ccc(Br)s2)C(=O)c2ccc(O)cc2O)cc1 | 
3 | 6.52 | 6.40 | 6.34 |  | 6.82 |  | CN(C)C(=O)c1ccc(N(Cc2ccc(C#N)cc2)C(=O)c2ccc(O)cc2O)cc1 | 
4 | 6.96 | 7.00 |  | 44500 nM |  | 97100 nM | CN(C)C(=O)c1ccc(N(Cc2ccc([N+](=O)[O-])cc2)C(=O)c2ccc(O)cc2O)cc1 | 
5 | 6.82 | 7.47 | 6.87 | 3500 nM | 6.95 | 4900 nM | CN(C)C(=O)c1ccc(N(Cc2ccc(O)cc2)C(=O)c2ccc(O)cc2O)cc1 | IC50 [7]: > 10000 nM; pIC50 [8]: 4.87; pIC50 [9]: < 4.70; pIC50 [10]: 5.88; pIC50 [11]: 5.84; pIC50 [12]: < 4.70; pIC50 [13]: < 4.70; pIC50 [14]: 5.19
6 | 6.85 | 6.56 |  |  |  |  | CN(C)C(=O)c1ccc(N(Cc2ccc(C(F)(F)F)cc2)C(=O)c2ccc(O)cc2O)cc1 | 
7 | 6.90 | 6.77 |  | 51000 nM |  | 31500 nM | CN(C)C(=O)c1ccc(N(Cc2ccc(Cl)cc2)C(=O)c2ccc(O)cc2O)cc1 | 
8 | 8.10 | 8.30 | 7.10 | 41900 nM | 8.05 | 51600 nM | CN(C)C(=O)c1ccc(N(Cc2cc(Br)cs2)C(=O)c2ccc(O)cc2O)cc1 | IC50 [7]: 5790 nM; pIC50 [8]: 4.74; pIC50 [9]: < 4.70; pIC50 [12]: 5.11; pIC50 [13]: < 4.70; pIC50 [14]: > 6.00
9 | 6.71 | 7.09 | 6.74 | 29900 nM | 7.62 | 30000 nM | CN(C)C(=O)c1ccc(N(Cc2ccc(Cl)o2)C(=O)c2ccc(O)cc2O)cc1 | 
10 | 6.69 | 7.18 |  |  | 6.96 |  | CN(C)C(=O)c1ccc(N(Cc2ccccc2)C(=O)c2ccc(O)cc2O)cc1 | 
11 | 7.19 | 7.70 | 7.19 | 40800 nM | 7.70 | 60200 nM | CN(C)C(=O)c1ccc(N(Cc2ncc(Br)s2)C(=O)c2ccc(O)cc2O)cc1 | IC50 [7]: 6000 nM
12 | 6.60 | 7.28 | 6.59 |  | 7.70 |  | Cc1ccc(CN(C(=O)c2ccc(O)cc2O)c2ccc(C(=O)N(C)C)cc2)o1 | 
13 | 6.88 | 7.16 | 7.17 | 9000 nM | 7.32 | 7800 nM | CN(C)C(=O)c1ccc(N(Cc2ccco2)C(=O)c2ccc(O)cc2O)cc1 | IC50 [7]: 770 nM; pIC50 [10]: 6.24; pIC50 [11]: 5.96
14 | 7.01 | 7.96 | 8.30 | 15900 nM | 7.85 | 39200 nM | CN(C)C(=O)c1ccc(N(Cc2ccc(I)o2)C(=O)c2ccc(O)cc2O)cc1 | 
15 | 7.02 | 7.05 | 7.01 | 59800 nM | 7.24 | 107000 nM | CN(C)C(=O)c1ccc(N(Cc2ccc(C#N)s2)C(=O)c2ccc(O)cc2O)cc1 | 
16 | 6.95 | 7.28 | 6.85 | 69700 nM | 7.17 | 57100 nM | CN(C)C(=O)c1ccc(N(Cc2ccc(F)cc2)C(=O)c2ccc(O)cc2O)cc1 | IC50 [7]: 5200 nM
17 | 8.00 | 7.89 | 7.23 | 10200 nM | 7.44 | 13400 nM | CN(C)C(=O)c1ccc(N(Cc2ccc(Br)o2)C(=O)c2ccc(O)cc2O)cc1 | Activity [16]: 60%; Activity [17]: 24.8%; inhibition at 20 µM [18]: 100%; IC50 [7]: 830 nM; Activity [19]: 70%; pIC50 [8]: < 4.70; Activity [20]: 30 - 34%; Activity [21]: 32%; pIC50 [9]: < 4.70; GI50 [15]: 5500 nM; pIC50 [10]: 6.51; pIC50 [11]: 5.68; pIC50 [12]: 5.37; Activity [22]: 50%; pIC50 [13]: < 4.70; pIC50 [14]: 5.85

Further lines, the compound ahead of its results:

Row | Structure (SMILES) | pIC50 [1] | pIC50 [2] | pIC50 [3] | GI50 [4] | pIC50 [5] | GI50 [6] | further results
18 | CN(C)C(=O)c1ccc(N(Cc2ccc(F)cc2)C(=O)c2ccc(O)cc2)cc1 | 5.69 | 6.41 |  |  |  |  | 
19 | Cc1cnc(Cl)nc1-c1ccc(N(Cc2ccc(CNC(=O)C(F)F)cc2)C(=O)c2ccc(O)cc2O)cc1 |  |  |  | > 50000 nM |  | > 50000 nM | IC50 [7]: > 10000 nM
20 | CC(=O)Nc1ccc(CN(C(=O)c2ccc(O)cc2O)c2ccc(C(=O)O)cc2)cc1 | 5.14 | 5.33 |  |  |  |  | 
21 | CC(=O)Nc1ccc(CN(C(=O)c2ccc(O)cc2O)c2ccc(C(=O)NC3CC3)cc2)cc1 | 5.71 | 4.83 |  |  |  |  | 
22 | CC(=O)Nc1ccc(CN(C(=O)c2ccc(O)cc2O)c2ccc(C(=O)N3CCOCC3)cc2)cc1 | 5.58 | 5.24 |  |  |  |  | 
23 | CC(=O)Nc1ccc(CN(C(=O)c2ccc(O)cc2O)c2ccc(C(=O)N3CCCC3)cc2)cc1 | 5.78 | 5.74 |  |  |  |  | 
24 | CC(=O)Nc1ccc(CN(C(=O)c2ccc(O)cc2O)c2ccc(C(=O)N3CCCCC3)cc2)cc1 | 5.79 | 5.70 |  |  |  |  | 
25 | CC(=O)Nc1ccc(CN(C(=O)c2ccc(O)cc2O)c2ccc(C(=O)NCCO)cc2)cc1 | 5.00 | 4.91 |  |  |  |  | 
26 | O=C(O)C(Cl)Cl [DICHLOROACETIC ACID] |  |  |  |  |  |  | GI50 [15]: 8500 nM
27 | CC(=O)Nc1ccc(CN(C(=O)c2ccc(O)cc2O)c2ccc(C(=O)N(C)C)cc2)cc1 | 6.30 | 6.51 |  |  |  |  | 
28 | CN(C)C(=O)c1ccc(N(Cc2ccc(F)cc2)C(=O)c2ccccc2O)cc1 | < 5.00 | < 5.00 |  |  |  |  | 
29 | CN(C)C(=O)c1ccc(N(CC2CCCCC2)C(=O)c2ccc(O)cc2O)cc1 | 6.74 | 6.11 | 6.07 |  | 6.85 |  | 
30 | CN(C)C(=O)c1ccc(N(CC(C)(C)C)C(=O)c2ccc(O)cc2O)cc1 | 6.11 | 5.27 |  |  |  |  | 
31 | CNC(=O)c1ccc(N(Cc2ccc(NC(C)=O)cc2)C(=O)c2ccc(O)cc2O)cc1 | 5.07 | 5.11 |  |  |  |  | 
32 | CN(C)C(=O)c1ccc(N(Cc2ccc3ccccc3c2)C(=O)c2ccc(O)cc2O)cc1 | 6.43 | 6.63 |  |  |  |  | 
